Reference: patent US20240051956A1, “SOS1 INHIBITORS AND USES THEREOF” (QILU REGOR THERAPEUTICS INC., priority 2020, published 2024)

Tests used:
SOS1 and KRAS G12D = SOS1 and KRAS G12D (Homo sapiens (Human), UniProt Q07889); test: KRAS::SOS1 AlphaScreen Binding Assay; details: SOS1 (564-1049), KRAS G12D (1-169), GDP
Excerpt: a. KRAS::SOS1 AlphaScreen Binding Assay
Low IC50 values of given compounds are indicative of high potency of the SOS1 inhibitor compounds in this assay setting.
• GST-TEV-SOS1 (564-1049) and His-TEV-Avi-KRAS G12D (1-169) are purchased from Viva Biotech (Shanghai) Ltd. • GDP (Sigma, Cat. G7127) • AlphaLISA Glutathione Acceptor Beads (PerkinElmer, Cat. AL109C) • AlphaScreen Streptavidin Donor Beads (PerkinElmer, Cat. 6760002S) • Assay plates: ProxiPlate-384 Plus, White 384-shallow well Microplate (PerkinElmer, Cat. 6008280)
SOS1 inhibitor compounds are diluted to a final start concentration of […]. Serial dilutions of compounds are made using Tecan D300e Digital Dispenser in 9 concentrations with serial 1:3 dilutions. 100 nL of compound solution is transferred to the 384-well assay plate per well, covering a range between 1 μM and 0.15 nM minimum in duplicate. 10 nM (final assay concentration) KRAS G12D, 5 nM (final assay concentration) SOS1 and 10 μM (final assay concentration) GDP are mixed in assay buffer, and 5 μL of KRAS::SOS1 GDP mix is added into the assay plate to the 100 nL of compound solution (final dilution in the assay 1:100, final DMSO concentration 1%). After a 30 min incubation, AlphaLISA Glutathione Acceptor Beads and AlphaScreen Streptavidin Donor Beads are mixed in assay buffer at a concentration of 5 µg/mL (final assay concentration), and 5 μL of bead mix is added into the assay plate. Plates are kept at room temperature in a darkened incubator for 3 h. After a 3 h incubation, the signal is determined using Envision (PerkinElmer). The excitation wavelength is 680 nm, and emission 615 nm. IC50 values are calculated and analyzed using GraphPad Prism.

NCI-H358 = test: Cell proliferation assay, 3D, CellTiter-Glo 3D; format: cell-based, human; details: Homo sapiens, 72 h; NCI-H358 (KRAS G12C), 3D ultra-low attachment, 3 days; read-out: anit-prolif. H358 IC50
Protocol: b. Cell Proliferation Assay
Low IC50 values are indicative of high potency of the compounds in this assay setting.
Cell proliferation assay is performed in three-dimensional (3D) ultra-low conditions with the human cell line NCI-H358, a human non-small cell lung cancer (NSCLC) cell line with a KRAS G12C mutation.
• 96-well Clear Round Bottom Ultra-Low Attachment Microplate (Corning, Cat. 7007) • 96-well Flat Clear Bottom White Polystyrene TC-treated Microplates (Corning, Cat. 3610) • RPMI-1640 Medium (Gibco, Cat. 22400105) • Fetal Bovine Serum (FBS) (Gibco, Cat. 10099141C) • 0.25% Trypsin-EDTA (Gibco, Cat. 25200056) • Penicillin-Streptomycin (Gibco, Cat. 15140122) • CellTiter-Glo 3D Cell Viability Assay (Promega, Cat. G9683)
NCI-H358 cells (ATCC, Cat. CRL-5807) are grown in cell culture flasks using RPMI medium supplemented with 10% FBS. Cells are incubated at 37° C. and 5% C02 in a humidified atmosphere, with sub-cultivation performed twice a week. Cells are trypsinized, counted and plated in 96-well ultra-low adhesion plates for 3D cell viability determination. The day after plating, serial dilutions of SOS1 inhibitor compounds are made using Tecan D300e Digital Dispenser to evaluate a concentration-dependent effect on cell viability. The concentration of the test compounds covers a range between 5 μM and 0.76 nM with serial 1:3 dilutions in 9 concentrations. 0.5 μL serial dilutions of the compounds are added in duplicates. 3 days later, the CellTiter-Glo 3D Cell Viability Assay is used to measure cell viability effects of SOS1 inhibitor compounds in 3D format. Luminescent intensity is determined using Envision (PerkinElmer). Data is analyzed and IC50 values are calculated using GraphPad Prism.

Sequence of SOS1 and KRAS G12D (Q07889 564-1049, stated change not applied): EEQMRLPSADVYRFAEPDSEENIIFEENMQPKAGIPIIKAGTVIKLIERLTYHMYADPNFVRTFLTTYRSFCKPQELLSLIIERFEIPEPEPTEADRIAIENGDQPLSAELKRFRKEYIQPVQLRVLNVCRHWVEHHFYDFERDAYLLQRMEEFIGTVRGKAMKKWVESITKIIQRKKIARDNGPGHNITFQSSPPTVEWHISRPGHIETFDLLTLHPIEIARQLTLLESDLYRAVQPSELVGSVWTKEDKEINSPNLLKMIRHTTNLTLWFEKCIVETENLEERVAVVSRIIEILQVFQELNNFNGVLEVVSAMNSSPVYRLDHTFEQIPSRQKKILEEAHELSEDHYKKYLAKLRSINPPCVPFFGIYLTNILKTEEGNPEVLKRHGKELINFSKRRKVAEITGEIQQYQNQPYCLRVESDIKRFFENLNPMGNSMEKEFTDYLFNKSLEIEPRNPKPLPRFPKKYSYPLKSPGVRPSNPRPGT

Row | IC50 (SOS1 and KRAS G12D) | IC50 (NCI-H358) | SMILES
1 | ≤ 15 nM | 100 to 500 nM | Cc1nc(N[C@H](C)c2cccc(C(F)F)c2F)c2cn(N3CCOCC3)c(=O)c(-c3ccc4nncn4c3)c2n1 [Example 72]
2 | ≤ 15 nM | ≤ 100 nM | COc1ccc(-c2c(=O)n(N3CCOCC3)cc3c(N[C@H](C)c4cccc(C(F)F)c4F)nc(C)nc23)cn1 [Example 58]
3 | 15 to 150 nM | ≤ 100 nM | Cc1nc(N[C@H](C)c2cccc(C(F)F)c2F)c2cn(N3CCN(c4ccc(C#N)cn4)CC3)c(=O)cc2n1 [Example 15, 6-[4-[4-[[(1R)-1-[3-(difluoromethyl)-2-fluoro-phenyl]ethyl]amino]-2-methyl-7-oxo-pyrido[4,3-d]pyrimidin-6-yl]piperazin-1-yl]pyridine-3-carbonitrile]
4 | ≤ 15 nM | 100 to 500 nM | Cc1nc(N[C@H](C)c2cccc(C(F)F)c2F)c2cn(N3CCOC3=O)c(=O)cc2n1 [Example 39]
5 | ≤ 15 nM | ≤ 100 nM | Cc1nc(N[C@H](C)c2cccc(C(F)(F)CO)c2)c2cn(N3CCOCC3)c(=O)c(F)c2n1 [Example 32]
6 | ≤ 15 nM | 100 to 500 nM | Cc1nc(N[C@H](C)c2cccc(C(F)F)c2F)c2cn(N3CCOCC3)c(=O)c(C3=CCOC3)c2n1 [Example 54]

The remaining lines, values behind:

Row | SMILES | IC50 (SOS1 and KRAS G12D) | IC50 (NCI-H358)
7 | Cc1nc(N[C@H](C)c2cccc(C(F)F)c2F)c2cn(N3CCCC3)c(=O)cc2n1 [Example 35] | ≤ 15 nM | 100 to 500 nM
8 | Cc1nc(N[C@H](C)c2cccc(C(F)F)c2F)c2cn(N3CCOCC3)c(=O)c(-c3ccc(C#N)nc3)c2n1 [Example 75, (R)-5-(4-((1-(3-(difluoromethyl)-2-fluorophenyl)ethyl)amino)-2-methyl-6-morpholino-7-oxo-6,7-dihydropyrido[4,3-]pyrimidin-8-yl)picolinonitrile] | ≤ 15 nM | ≤ 100 nM
9 | Cc1nc(N[C@H](C)c2cccc(C(F)F)c2F)c2cn(N3CCOCC3)c(=O)c(C3CC3)c2n1 [Example 42, 8-cyclopropyl-4-[[(1R)-1-[3-(difluoromethyl)-2-fluoro-phenyl]ethyl]amino]-2-methyl-6-morpholino-pyrido[4,3-d]pyrimidin-7-one] | ≤ 15 nM | 100 to 500 nM
10 | COC1CCN(n2cc3c(N[C@H](C)c4cccc(C(F)F)c4F)nc(C)nc3cc2=O)CC1 [Example 7] | ≤ 15 nM | 100 to 500 nM
11 | Cc1nc(N[C@H](C)c2cccc(C(F)F)c2F)c2cn(N3CCOCC3)c(=O)c(-c3cnc(C#N)nc3)c2n1 [Example 66] | ≤ 15 nM | ≤ 100 nM
12 | Cc1nc(N[C@H](C)c2cccc(C(F)F)c2F)c2cn(N3CCOCC3)c(=O)c(-c3ccc4nccn4c3)c2n1 [Example 73] | ≤ 15 nM | ≤ 100 nM
13 | Cc1nc(N[C@H](C)c2cc(N)cc(C(F)(F)F)c2)c2cn(N3CCOCC3)c(=O)cc2n1 [Example 16, 4-[[(1R)-1-[3-amino-5-(trifluoromethyl)phenyl]ethyl]amino]-2-methyl-6-morpholino-pyrido[4,3-d]pyrimidin-7-one] | 15 to 150 nM | 100 to 500 nM
14 | Cc1nc(N[C@H](C)c2cccc(C(F)F)c2F)c2cn(N3CCOCC3)c(=O)c(-c3cccnc3)c2n1 [Example 45] | ≤ 15 nM | ≤ 100 nM
15 | Cc1nc(NC(C)c2cccc(C(F)F)c2)c2cn(N3CCOCC3)c(=O)cc2n1 (stereo not drawn) [Example 25] | 15 to 150 nM | 100 to 500 nM
16 | C=C(C)c1c(=O)n(N2CCOCC2)cc2c(N[C@H](C)c3cccc(C(F)F)c3F)nc(C)nc12 [Example 56] | ≤ 15 nM | 100 to 500 nM
17 | Cc1nc(N[C@H](C)c2cccc(C(F)(F)F)c2F)c2cn(N3CCOCC3)c(=O)c(F)c2n1 [Example 31] | ≤ 15 nM | ≤ 100 nM
18 | Cc1nc(N[C@H](C)c2cccc(C(F)F)c2F)c2cn(N3CCOCC3)c(=O)c(-c3ccc(C#N)c(F)c3)c2n1 [Example 62] | 15 to 150 nM | 100 to 500 nM
